According to US20240181007A1, “COMPOSITIONS AND METHODS FOR TREATING PULMONARY HYPERTENSION” (Acceleron Pharma Inc., priority 2021, published 2024):

Test system: TAC-PH mice
Test: Transverse aortic constriction (TAC) induced PH mouse model, BALB/cJ (Example 12)
Assay type: in vivo
Details: day 42, relative to TAC PBS
Excerpt: The effects of an ActRIIA-mFc fusion polypeptide (SEQ ID NO: 56) was examined in a mouse model of left ventricular systolic dysfunction (also referred to as HErEF) of pulmonary hypertension (PH) and valvular heart disease. In this model, BALB/cJ mice underwent transverse aortic constriction (TAC) to induce left heart failure, and right heart and pulmonary remodeling. See, e.g., Xiong P Y. et al. Hypertension 2018, 71(1):34-55 and Chen Y. et al. Hypertension 2012, 59(6):1170-1178.
Forty-four BALB/cJ male mice (10 wks old) underwent TAC surgery and fourteen age-matched animals underwent a mock surgical procedure (Sham) at day 0. Two weeks after the surgery, TAC-PH mice were randomized into three groups. i) fourteen mice were injected subcutaneously with vehicle control (phosphate buffered saline (PBS)), twice weekly for 4 weeks starting from day 14 after surgery, “TAC PBS”; ii) fifteen mice were injected subcutaneously with ActRIIA-mFc at a dose of 3 mg/kg twice weekly for 4 weeks starting from day 14 after TAC surgery, “TAC ActRIIA-mFc 3 mpk”; and iii) fifteen mice were injected subcutaneously with ActRIIA-mFc at a dose of 10 mg/kg twice weekly for 4 weeks starting from day 14 after TAC surgery, “TAC ActRIIA-mFc 10 mpk.” At the end of the study, echocardiography and pressure-volume catheter were performed to measure left and right ventricular remodeling and functional changes before animals were euthanized for heart and lung collection. Hearts and lungs of each mouse were weighed, fixed in 10% formalin, embedded in paraffin, and sectioned for Masson's trichrome stain to assess fibrosis.
Prior to euthanasia, in vivo cardiac function was assessed by transthoracic echocardiography (Acuson P300, 18 MHz transducer; Siemens) in conscious mice. From left ventricle (LV) short axis view, M-mode echocardiogram was acquired to measure left ventricle end diastolic diameter (LVEDD), and left ventricle end systolic diameter (LVESD). Fractional shortening (FS) was calculated from the end-diastolic diameter (EDD) and end-systolic diameter (ESD) using the following equation: FS=100%×[(EDD−ESD)/EDD]. Early diastolic filling peak velocity (E), early diastolic mitral annular velocity (E′), and isovolumetric relaxation time (IVRT) were measured from the medial or septal wall at the mitral valve level from tissue Doppler image. LV diastolic function was assessed by measuring the E/E′ ratio and IVRT. Three to five beats were averaged for each mouse measurement. RV free wall thickness (RVFWT) was measured using M-mode in a modified parasternal long-axis view through the aortic valve. Pulmonary artery acceleration time (PAAT) was measured as the time from start to peak velocity of blood flow in the lumen of the main pulmonary artery distal to the pulmonary valve as obtained from the pulse-wave doppler recording.
On day 42, mice were anesthetized by an intraperitoneal injection of ketamine/xylazine (100/5 mg/kg) to evaluate left and right ventricular function by Millar pressure-volume conductance catheter. The respiration was supported by a small animal ventilator.
Thoracotomy was made through 4-5 intercostal space, and the heart was exposed. A pressure-volume catheter (1.0-Fr, PVR-1035, Millar Instruments, Houston, TX, USA) was inserted into the left ventricle and right ventricle from the apex. Ventricular pressure and volume were calculated with LabChart 7 software. Ejection fraction was derived. Afterwards, animals were euthanized for heart and lung collection. Cardiac hypertrophy was measured by heart weight (HW) normalized by tibial length (TL). Left ventricle (LV), right ventricle (RV) and lung of each mouse were separated, fixed in 10% formalin, embedded in paraffin, and sectioned for Masson's trichrome stain to assess fibrosis. Serum and urine samples were collected at the end of the study.

ActRIIA-mFc: ActRIIA-mFc fusion polypeptide (SEQ ID NO: 56); extracellular domain fused to murine IgG2a Fc domain with a linker
LV ejection fraction (3 mpk or 10 mpk s.c. twice weekly for 4 weeks from day 14 after TAC, FIG. 45): restored LV ejection fraction
cardiac hypertrophy, heart weight/tibia length (HW/TL) (3 mpk or 10 mpk s.c. twice weekly for 4 weeks from day 14 after TAC, FIG. 46): significantly reduced cardiac hypertrophy
IVRT (3 mpk or 10 mpk s.c. twice weekly for 4 weeks from day 14 after TAC, FIG. 48): reduced IVRT
RVSP (3 mpk or 10 mpk s.c. twice weekly for 4 weeks from day 14 after TAC, FIG. 49): reduced RVSP
RVFWT (3 mpk or 10 mpk s.c. twice weekly for 4 weeks from day 14 after TAC, FIG. 50): significantly reduced elevated RVFWT
PAAT (3 mpk or 10 mpk s.c. twice weekly for 4 weeks from day 14 after TAC, FIG. 51): increased PAAT
LV fibrosis (3 mpk or 10 mpk s.c. twice weekly for 4 weeks from day 14 after TAC, FIG. 52): significantly reduced
RV fibrosis (3 mpk or 10 mpk s.c. twice weekly for 4 weeks from day 14 after TAC, FIG. 53): significantly reduced
lung fibrosis (3 mpk or 10 mpk s.c. twice weekly for 4 weeks from day 14 after TAC, FIG. 54): significantly reduced lung fibrosis
E/E′ ratio (3 mpk s.c. twice weekly for 4 weeks from day 14 after TAC, FIG. 47): reduced E/E′ ratio at 3 mpk
